Consider 2 molecules from paper PMC3766860, “Two Novel Tyrosinase Inhibitory Sesquiterpenes Induced by CuCl2 from a Marine-Derived Fungus Pestalotiopsis sp. Z233” (Marine Drugs, 2013).

This test has as its target Mushroom tyrosinase. Briefly: o-diphenolase assay of mushroom tyrosinase, L-DOPA substrate, DOPAchrome absorbance at […] nm. The test is classed as biochemical.

For `CC(=O)OC[C@]12[C@H](OC(C)=O)[C@H](O)C[C@H](C)[C@]1(OC(C)=O)[C@@H](OC(C)=O)[C@@H](C(C)(C)O)C[C@H]2OC(=O)c1ccccc1` (relative stereo) [compound 1, 1β,5α,6α,14-tetraacetoxy-9α-benzoyloxy-7βH-eudesman-2β,11-diol], it took 14.8 µM to reach half-maximal inhibition (IC50).

Turning to `CC(=O)O[C@@]12C[C@@H](C(C)(C)O)C[C@@H](OC(=O)c3ccccc3)[C@@]1(CO)[C@H](O)[C@H](O)C[C@@]2(C)OC(C)=O` (relative stereo) [compound 2, 4α,5α-diacetoxy-9α-benzoyloxy-7βH-eudesman-1β,2β,11,14-tetraol], the IC50 is 22.3 µM.

The IC50 is the concentration that gives 50% inhibition.
